Experiment [1] addresses T1, Prostaglandin G/H synthase 1 (Ovis aries, UniProt P05979).
T1 sequence (P05979 whole entry): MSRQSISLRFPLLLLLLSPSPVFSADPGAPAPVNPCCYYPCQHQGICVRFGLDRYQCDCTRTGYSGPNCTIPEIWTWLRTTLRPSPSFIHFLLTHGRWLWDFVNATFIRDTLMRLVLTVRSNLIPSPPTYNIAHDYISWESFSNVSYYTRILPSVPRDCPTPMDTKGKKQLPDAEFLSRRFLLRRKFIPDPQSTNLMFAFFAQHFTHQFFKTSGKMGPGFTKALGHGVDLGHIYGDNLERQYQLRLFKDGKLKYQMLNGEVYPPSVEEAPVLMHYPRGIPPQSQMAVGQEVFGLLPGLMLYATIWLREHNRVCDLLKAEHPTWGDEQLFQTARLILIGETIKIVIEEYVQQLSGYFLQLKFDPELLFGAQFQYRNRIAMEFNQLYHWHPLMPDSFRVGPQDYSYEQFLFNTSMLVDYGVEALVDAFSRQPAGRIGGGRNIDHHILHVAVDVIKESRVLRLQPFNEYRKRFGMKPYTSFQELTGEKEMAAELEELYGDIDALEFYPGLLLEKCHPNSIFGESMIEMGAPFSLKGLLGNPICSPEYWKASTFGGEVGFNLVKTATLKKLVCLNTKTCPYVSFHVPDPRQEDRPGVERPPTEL
Briefly: Inhibition of ovine COX1-mediated prostaglandin alpha production by enzyme immuno assay.

For experiment [2], the system named is Rattus norvegicus. In words: Antiinflammatory activity in ip dosed Sprague-Dawley rat assessed as inhibition of carrageenan-induced paw edema measured after 2 hrs plethysmometric analysis. It is filed as functional. (In general: In the carrageenan paw model, swelling and tenderness develop within hours.)

Some results are limits rather than exact numbers.

A word on the IC50: it is the concentration at which inhibition is half-maximal. What is called ED50 is the dose that gives a 50% effect, or the effect in half of the subjects.

In experiment [1], `NS(=O)(=O)c1ccc(N2C(=O)c3c(Cl)c(Cl)c(Cl)c(Cl)c3C2=O)cc1` displayed an IC50 of more than 100 µM.

Take `CC(C)(C)c1ccc2c(c1)C(=O)N(c1ccc(C(=O)O)cc1)C2=O`: the IC50 in experiment [1] was more than 100 µM.

With `CC(C)(C)c1ccc2c(c1)C(=O)N(c1ccc(S(N)(=O)=O)cc1)C2=O`, the IC50 in experiment [1] is more than 100 µM.

`O=C(O)c1ccc(N2C(=O)[C@H]3CC=CC[C@H]3C2=O)cc1` had an IC50 in experiment [1] of more than 100 µM.

Turning to `NS(=O)(=O)c1ccc(CN2C(=O)c3nccnc3C2=O)cc1`, the median effective dose (ED50) in experiment [2] is 126 mg/kg. In experiment [1], the half-maximal inhibitory concentration (IC50) was more than 100 µM.

`NS(=O)(=O)c1ccc(N2C(=O)CCC2=O)cc1` came in with an IC50 in experiment [1] of more than 100 µM.

`NS(=O)(=O)c1ccc(N2C(=O)c3cccc4cccc(c34)C2=O)cc1`: the ED50 in experiment [2] is 210 mg/kg. For the same compound, in experiment [1], the IC50 was more than 100 µM.

In experiment [1], `Cc1ccc2c(c1)C(=O)N(Cc1ccc(S(N)(=O)=O)cc1)C2=O` came in with an IC50 of more than 100 µM.

In experiment [1], `Cc1ccc2c(c1)C(=O)N(c1ccc(C(=O)O)cc1)C2=O` returned a concentration for half-maximal inhibition (IC50) of more than 100 µM.

On to `O=C(O)c1ccc(N2C(=O)c3cccc4cccc(c34)C2=O)cc1`, for which, in experiment [1], the IC50 was more than 100 µM.

Turning to `O=C(O)c1ccc(N2C(=O)c3c(Cl)c(Cl)c(Cl)c(Cl)c3C2=O)cc1`, the IC50 in experiment [1] is more than 100 µM.

In the case of `NS(=O)(=O)c1ccc(N2C(=O)c3ccc([N+](=O)[O-])cc3C2=O)cc1`, in experiment [2], the ED50 was 101 mg/kg. This compound registered an IC50 in experiment [1] of more than 100 µM.

Regarding `Cc1ccc(-c2cc(C(F)(F)F)nn2-c2ccc(S(N)(=O)=O)cc2)cc1` [CELECOXIB], the ED50 in experiment [2] turned out to be 83.4 mg/kg.

Turning to `NS(=O)(=O)c1ccc(N2C(=O)[C@H]3CC=CC[C@H]3C2=O)cc1`, the IC50 in experiment [1] is more than 100 µM.

In the case of `O=C(O)c1ccc(N2C(=O)c3ccc([N+](=O)[O-])cc3C2=O)cc1`, in experiment [1], the IC50 is more than 100 µM.

Turning to `CC(C)(C)c1ccc2c(c1)C(=O)N(Cc1ccc(S(N)(=O)=O)cc1)C2=O`, the IC50 in experiment [1] is more than 100 µM.

For the compound `NS(=O)(=O)c1ccc(CN2C(=O)[C@H]3CC=CC[C@H]3C2=O)cc1`, the IC50 in experiment [1] was more than 100 µM.

Turning to `NS(=O)(=O)c1ccc(CN2C(=O)c3cccc4cccc(c34)C2=O)cc1`, in experiment [2], the ED50 is 200 mg/kg. Further, the IC50 in experiment [1] is more than 100 µM.

`NS(=O)(=O)c1ccc(CN2C(=O)c3c(Cl)c(Cl)c(Cl)c(Cl)c3C2=O)cc1` showed a concentration for half-maximal inhibition (IC50) in experiment [1] of more than 100 µM.

In the case of `NS(=O)(=O)c1ccc(CN2C(=O)c3ccc([N+](=O)[O-])cc3C2=O)cc1`, the median effective dose (ED50) in experiment [2] was 72.4 mg/kg. The compound further had an IC50 in experiment [1] of more than 100 µM.

Compound `O=C(O)c1ccc(N2C(=O)c3ccccc3C2=O)cc1` gave an IC50 in experiment [1] of more than 100 µM.

As for `NS(=O)(=O)c1ccc(N2C(=O)c3ccccc3C2=O)cc1`, the IC50 in experiment [1] was more than 100 µM.

Compound `O=C(O)c1ccc(N2C(=O)c3cc(Cl)c(Cl)cc3C2=O)cc1` returned a half-maximal inhibitory concentration (IC50) in experiment [1] of more than 100 µM.

Consider `O=C(O)c1ccc(N2C(=O)CCC2=O)cc1`, for which, in experiment [1], the IC50 was more than 100 µM.

Compound `NS(=O)(=O)c1ccc(CN2C(=O)CCC2=O)cc1` had a half-maximal inhibitory concentration (IC50) in experiment [1] of more than 100 µM.

Compound `O=C(O)c1ccc(N2C(=O)c3nccnc3C2=O)cc1` registered an IC50 in experiment [1] of more than 100 µM.

`Cc1ccc2c(c1)C(=O)N(c1ccc(S(N)(=O)=O)cc1)C2=O`: in experiment [1], the IC50 is more than 100 µM.

As to `NS(=O)(=O)c1ccc(N2C(=O)c3nccnc3C2=O)cc1`, the ED50 in experiment [2] came to 160 mg/kg. In experiment [1], this compound displayed an IC50 of more than 100 µM.

In the case of `NS(=O)(=O)c1ccc(N2C(=O)c3cc(Cl)c(Cl)cc3C2=O)cc1`, in experiment [2], the median effective dose (ED50) was found to be 111 mg/kg. This compound displayed an IC50 in experiment [1] of more than 100 µM.

As to `NS(=O)(=O)c1ccc(CN2C(=O)c3cc(Cl)c(Cl)cc3C2=O)cc1`, in experiment [2], the ED50 was determined as 100 mg/kg. The compound also returned a half-maximal inhibitory concentration (IC50) in experiment [1] of more than 100 µM.

Turning to `NS(=O)(=O)c1ccc(CN2C(=O)c3ccccc3C2=O)cc1`, the IC50 in experiment [1] was more than 100 µM.

The values above are taken from ChEMBL document CHEMBL2375216, “Molecular design, synthesis and biological evaluation of cyclic imides bearing benzenesulfonamide fragment as potential COX-2 inhibitors. Part 2” (Bioorg Med Chem Lett, 2013).
